Measured values published in PubChem BioAssay AID1918935 (Molecular Pharmacology Branch, DTP, NCI, 2023).

Test system: 324938-238-R-J1-PDC complex spheroid viability
Test: Anticancer human tumor 324938-238-R-J1-PDC patient-derived bladder carcinoma cell line growth inhibition
Settings: for IC50: curve of first compound; for viability, T/C: stronger effect = lower value
Outline: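 Drug combinations with the LSD1 inhibitor iadademstat tested on tumor cells co-cultured as spheroids with endothelial cells and mesenchymal stem cells. Concentrations descended in half-log increments from clinical Cmax or 10 microM.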

[1] = second compound 0.1 µM, first compound 0.0316 µM
[2] = second compound 0.1 µM, first compound 0.1 µM
[3] = second compound 0.1 µM, first compound 0.316 µM
[4] = second compound 0.1 µM, first compound 1 µM
[5] = second compound 0.316 µM, first compound 0.0316 µM
[6] = second compound 0.316 µM, first compound 0.1 µM
[7] = second compound 0.316 µM, first compound 0.316 µM
[8] = second compound 0.316 µM, first compound 1 µM
[9] = second compound 1 µM, first compound 0.0316 µM
[10] = second compound 1 µM, first compound 0.1 µM
[11] = second compound 1 µM, first compound 0.316 µM
[12] = second compound 1 µM, first compound 1 µM
[13] = second compound 3.16 µM, first compound 0.0316 µM
[14] = second compound 3.16 µM, first compound 0.1 µM
[15] = second compound 3.16 µM, first compound 0.316 µM
[16] = second compound 3.16 µM, first compound 1 µM
[17] = second compound 10 µM, first compound 0.0316 µM
[18] = second compound 10 µM, first compound 0.1 µM
[19] = second compound 10 µM, first compound 0.316 µM
[20] = second compound 10 µM, first compound 1 µM
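Further: spheroids also contain HUVEC and human MSCs and agents combined with iadademstat; spheroids exposed to agents for 7 days before readout.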

Structure (SMILES): CC1COCCN1c1cc(-c2ccnn2C)c2ccnc(-c3ccn[nH]3)c2n1 (stereo not given) + NC1CC1c1ccc(-c2cccc(O)c2)cc1
- IC50 (second compound 0.1 µM): 22.9 nM
- IC50 (second compound 0.316 µM): 17.6 nM
- IC50 (second compound 1 µM): 12.9 nM
- IC50 (second compound 3.16 µM): 15.8 nM
- IC50 (second compound 10 µM): 12.9 nM
- viability, T/C (second compound 0.1 µM, first compound 0.00316 µM): 90.1%
- viability, T/C (second compound 0.1 µM, first compound 0.01 µM): 73.6%
- viability, T/C [1]: 40.5%
- viability, T/C [2]: 20.6%
- viability, T/C [3]: 14.1%
- viability, T/C [4]: 12.1%
- viability, T/C (second compound 0.316 µM, first compound 0.00316 µM): 74%
- viability, T/C (second compound 0.316 µM, first compound 0.01 µM): 61.5%
- viability, T/C [5]: 38.1%
- viability, T/C [6]: 20.6%
- viability, T/C [7]: 13.3%
- viability, T/C [8]: 11.6%
- viability, T/C (second compound 1 µM, first compound 0.00316 µM): 66.7%
- viability, T/C (second compound 1 µM, first compound 0.01 µM): 54.7%
- viability, T/C [9]: 35%
- viability, T/C [10]: 21.5%
- viability, T/C [11]: 14.3%
- viability, T/C [12]: 10.8%
- viability, T/C (second compound 3.16 µM, first compound 0.00316 µM): 73.9%
- viability, T/C (second compound 3.16 µM, first compound 0.01 µM): 57%
- viability, T/C [13]: 39.3%
- viability, T/C [14]: 22.1%
- viability, T/C [15]: 14.5%
- viability, T/C [16]: 12%
- viability, T/C (second compound 10 µM, first compound 0.00316 µM): 69.6%
- viability, T/C (second compound 10 µM, first compound 0.01 µM): 54.1%
- viability, T/C [17]: 36.4%
- viability, T/C [18]: 24.2%
- viability, T/C [19]: 17.9%
- viability, T/C [20]: 13.7%

Structure (SMILES): COc1ccc([C@@H](O)c2cc(-c3ncnc4cc(N5CCOCC5)ccc34)c(F)cc2Cl)nn1 + NC1CC1c1ccc(-c2cccc(O)c2)cc1
- IC50 (second compound 0.1 µM): 1440 nM
- IC50 (second compound 0.316 µM): 481 nM
- IC50 (second compound 1 µM): 411 nM
- IC50 (second compound 3.16 µM): 313 nM
- IC50 (second compound 10 µM): 439 nM
- viability, T/C [1]: 82.3%
- viability, T/C [2]: 77.6%
- viability, T/C [3]: 65.2%
- viability, T/C [4]: 54%
- viability, T/C (second compound 0.1 µM, first compound 3.16 µM): 41.5%
- viability, T/C (second compound 0.1 µM, first compound 10 µM): 25.7%
- viability, T/C [5]: 71.3%
- viability, T/C [6]: 61.8%
- viability, T/C [7]: 52%
- viability, T/C [8]: 45.7%
- viability, T/C (second compound 0.316 µM, first compound 3.16 µM): 34.9%
- viability, T/C (second compound 0.316 µM, first compound 10 µM): 25%
- viability, T/C [9]: 63.6%
- viability, T/C [10]: 60.5%
- viability, T/C [11]: 49.6%
- viability, T/C [12]: 43.2%
- viability, T/C (second compound 1 µM, first compound 3.16 µM): 37.5%
- viability, T/C (second compound 1 µM, first compound 10 µM): 23.4%
- viability, T/C [13]: 62.6%
- viability, T/C [14]: 59.4%
- viability, T/C [15]: 49.4%
- viability, T/C [16]: 39.7%
- viability, T/C (second compound 3.16 µM, first compound 3.16 µM): 35.3%
- viability, T/C (second compound 3.16 µM, first compound 10 µM): 25.6%
- viability, T/C [17]: 64.2%
- viability, T/C [18]: 60.2%
- viability, T/C [19]: 55.6%
- viability, T/C [20]: 38.5%
- viability, T/C (second compound 10 µM, first compound 3.16 µM): 32.7%
- viability, T/C (second compound 10 µM, first compound 10 µM): 21.8%
